The term IC50 denotes the concentration at which inhibition is half-maximal. Read a low IC50 as higher potency.

Here are results for 35 molecules from US9102688B2, “Sulfonaminoquinoline hepcidin antagonists” (Vifor (International) AG, priority 2011, dated 2015).

For the experiment, the target named is T1, human ferroportin (Homo sapiens, UniProt Q9NP59).
T1 construct: expressed in transfected cells
T1 sequence (Q9NP59 1-571): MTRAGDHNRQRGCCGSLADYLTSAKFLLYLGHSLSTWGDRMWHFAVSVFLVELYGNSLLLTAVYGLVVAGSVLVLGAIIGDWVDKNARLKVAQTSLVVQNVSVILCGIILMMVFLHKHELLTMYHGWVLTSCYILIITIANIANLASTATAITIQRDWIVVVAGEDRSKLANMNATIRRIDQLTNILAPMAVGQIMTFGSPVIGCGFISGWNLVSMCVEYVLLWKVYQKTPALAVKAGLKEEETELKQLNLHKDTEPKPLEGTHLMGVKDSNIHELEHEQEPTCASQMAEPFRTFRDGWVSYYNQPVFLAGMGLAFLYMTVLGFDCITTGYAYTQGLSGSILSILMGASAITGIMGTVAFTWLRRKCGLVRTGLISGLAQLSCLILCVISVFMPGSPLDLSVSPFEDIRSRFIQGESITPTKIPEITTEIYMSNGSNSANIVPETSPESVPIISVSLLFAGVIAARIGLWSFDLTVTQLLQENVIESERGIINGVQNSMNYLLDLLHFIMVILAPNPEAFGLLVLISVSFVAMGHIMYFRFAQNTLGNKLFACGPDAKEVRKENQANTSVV
The experiment is described as follows: ferroportin internalization assay (inhibition of hepcidin-induced internalization of Fpn). The experiment is classed as cell-based. The note with it: MDCK-FPN-HaloTag cells, 100 nM hepcidin, overnight incubation; concentration range from 0.04 to 40 μM. The gist of the method:
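MDCK cells stably expressing human ferroportin–HaloTag were labelled with TMR ligand, then incubated overnight at 37 °C with compound plus 100 nM hepcidin (final). After fixation and nuclear staining, confocal imaging quantified membrane Fpn fluorescence to measure blocking of hepcidin-induced internalization.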

`Cc1cc2c(cc1F)-c1ccc3cccnc3c1NS2(=O)=O` [Example 331, 9-Fluoro-8-methyl-5H-6-thia-4,5-diaza-chrysene 6,6-dioxide] displayed an IC50 of 3240 nM. That is a single-digit micromolar value.

`O=S1(=O)Nc2c(ccc3cccnc23)-c2ccc(C(F)(F)F)cc21` [Example 332, 8-Trifluoromethyl-5H-6-thia-4,5-diaza-chrysene 6,6-dioxide] had an IC50 of 2340 nM.

`O=S1(=O)Nc2c(ccc3cccnc23)-c2cc(OC(F)(F)F)ccc21` [Example 333, 9-Trifluoromethoxy-5H-6-thia-4,5-diaza-chrysene 6,6-dioxide]: the IC50 came out at 1170 nM.

`O=S1(=O)Nc2c(cc(Cl)c3cccnc23)-c2cc(C(F)(F)F)ccc21` [Example 334, 12-Chloro-9-trifluoromethyl-5H-6-thia-4,5-diaza-chrysene 6,6-dioxide] returned an IC50 of 6250 nM.

With `Cc1cccc2c1S(=O)(=O)Nc1c-2ccc2cccnc12` [Example 335, 7-Methyl-5H-6-thia-4,5-diaza-chrysene 6,6-dioxide], the IC50 was 3880 nM.

`CN1C(c2ccc(F)cc2)c2ccc3cccnc3c2NS1(=O)=O` (centres unmarked) [Example 382, 1-(4-Fluoro-phenyl)-2-methyl-1,4-dihydro-2H-3-thia-2,4,5-triaza-phenanthrene 3,3-dioxide] displayed an IC50 of 340 nM. This IC50 is about 11-fold lower than that of the molecule before.

`Cc1ccc(C2c3ccc4cccnc4c3NS(=O)(=O)N2C)cc1` (centres unmarked) [Example 383, 2-Methyl-1-p-tolyl-1,4-dihydro-2H-3-thia-2,4,5-triaza-phenanthrene 3,3-dioxide] had an IC50 of 600 nM.

In turn, `COc1ccccc1C1c2ccc3cccnc3c2NS(=O)(=O)N1C` (centres unmarked) [Example 384, 1-(2-Methoxy-phenyl)-2-methyl-1,4-dihydro-2H-3-thia-2,4,5-triaza-phenanthrene 3,3-dioxide] came in with a 50% inhibitory concentration (IC50) of 1870 nM.

In turn, `CN1C(c2ccc(C(F)(F)F)cc2)c2ccc3cccnc3c2NS1(=O)=O` (centres unmarked) [Example 385, 2-Methyl-1-(4-trifluoromethyl-phenyl)-1,4-dihydro-2H-3-thia-2,4,5-triaza-phenanthrene 3,3-dioxide] yielded a concentration for half-maximal inhibition (IC50) of 1370 nM. This IC50 and that of the molecule before are within 1.5-fold of each other.

`CN1C(c2ccc(C(F)(F)F)nc2)c2ccc3cccnc3c2NS1(=O)=O` (centres unmarked) [Example 386, 2-Methyl-1-(6-trifluoromethyl-pyridin-3-yl)-1,4-dihydro-2H-3-thia-2,4,5-triaza-phenanthrene 3,3-dioxide] returned an IC50 of 960 nM.

`CN1C(c2ccncc2F)c2ccc3cccnc3c2NS1(=O)=O` (centres unmarked) [Example 387, 1-(3-Fluoro-pyridin-4-yl)-2-methyl-1,4-dihydro-2H-3-thia-2,4,5-triaza-phenanthrene 3,3-dioxide]: the IC50 was 1600 nM. This IC50 lies about 1.7-fold higher than the previous one.

As to `CN1C(c2ccc(F)cn2)c2ccc3cccnc3c2NS1(=O)=O` (centres unmarked) [Example 388, 1-(5-Fluoro-pyridin-2-yl)-2-methyl-1,4-dihydro-2H-3-thia-2,4,5-triaza-phenanthrene 3,3-dioxide], the midpoint of inhibition, the IC50, lay at 1570 nM.

Molecule `CN1C(c2cccc(F)c2)c2ccc3cccnc3c2NS1(=O)=O` (centres unmarked) [Example 389, 1-(3-Fluoro-phenyl)-2-methyl-1,4-dihydro-2H-3-thia-2,4,5-triaza-phenanthrene 3,3-dioxide] gave an IC50 of 720 nM.

The molecule `COc1ccc(C2c3ccc4cccnc4c3NS(=O)(=O)N2C)cc1` (centres unmarked) [Example 390, 1-(4-Methoxy-phenyl)-2-methyl-1,4-dihydro-2H-3-thia-2,4,5-triaza-phenanthrene 3,3-dioxide] had a concentration for half-maximal inhibition (IC50) of 2240 nM.

Molecule `CN1C(c2ccc(F)c(Cl)c2)c2ccc3cccnc3c2NS1(=O)=O` (centres unmarked) [Example 391, 1-(3-Chloro-4-fluoro-phenyl)-2-methyl-1,4-dihydro-2H-3-thia-2,4,5-triaza-phenanthrene 3,3-dioxide] came in with an IC50 of 3700 nM.

With `CN1C(c2ccc(F)c(F)c2)c2ccc3cccnc3c2NS1(=O)=O` (centres unmarked) [Example 392, 1-(3,4-Difluoro-phenyl)-2-methyl-1,4-dihydro-2H-3-thia-2,4,5-triaza-phenanthrene 3,3-dioxide], half-maximal inhibition (IC50) was put at 250 nM.

On to `CN1C(c2ccc(OC(F)(F)F)cc2)c2ccc3cccnc3c2NS1(=O)=O` (centres unmarked) [Example 393, 2-Methyl-1-(4-trifluoromethoxy-phenyl)-1,4-dihydro-2H-3-thia-2,4,5-triaza-phenanthrene 3,3-dioxide], for which the IC50 amounted to 1150 nM.

Molecule `COc1ccc(C2c3ccc4cccnc4c3NS(=O)(=O)N2C)c(OC)c1` (centres unmarked) [Example 394, 1-(2,4-Dimethoxy-phenyl)-2-methyl-1,4-dihydro-2H-3-thia-2,4,5-triaza-phenanthrene 3,3-dioxide] displayed an IC50 of 1070 nM.

In the case of `Cc1cc(F)ccc1C1c2ccc3cccnc3c2NS(=O)(=O)N1C` (centres unmarked) [Example 395, 1-(4-Fluoro-2-methyl-phenyl)-2-methyl-1,4-dihydro-2H-3-thia-2,4,5-triaza-phenanthrene 3,3-dioxide], the half-inhibitory concentration (IC50) came out at 1500 nM.

For `COc1ccc(C2c3ccc4cccnc4c3NS(=O)(=O)N2C)cc1F` (centres unmarked) [Example 396, 1-(3-Fluoro-4-methoxy-phenyl)-2-methyl-1,4-dihydro-2H-3-thia-2,4,5-triaza-phenanthrene 3,3-dioxide], the 50% inhibitory concentration (IC50) came out at 1480 nM.

In the case of `O=S1(=O)Nc2c(ccc3cccnc23)C(c2ccc(F)cc2)N1` (centres unmarked) [Example 398, 1-(4-Fluoro-phenyl)-1,4-dihydro-2H-3-thia-2,4,5-triaza-phenanthrene 3,3-dioxide], 2780 nM corresponded to half-maximal inhibition (IC50).

For the molecule `CN1C(c2ccc(F)cc2)c2cc(Cl)c3cccnc3c2NS1(=O)=O` (centres unmarked) [Example 401, 9-Chloro-1-(4-fluoro-phenyl)-2-methyl-1,4-dihydro-2H-3-thia-2,4,5-triaza-phenanthrene 3,3-dioxide], it took 12500 nM to reach half-maximal inhibition (IC50).

Consider `CC(=O)c1cc2c(c3ncccc13)NS(=O)(=O)N(C)C2c1ccc(F)cc1` (centres unmarked) [Example 402, 1-[1-(4-Fluoro-phenyl)-2-methyl-3,3-dioxo-1,2,3,4-tetrahydro-3λ*6*-thia-2,4,5-triaza-phenanthren-9-yl]-ethanone], for which the IC50 worked out at 250 nM.

For `CC(O)c1cc2c(c3ncccc13)NS(=O)(=O)N(C)C2c1ccc(F)cc1` (centres unmarked) [Example 403, 1-[1-(4-Fluoro-phenyl)-2-methyl-3,3-dioxo-1,2,3,4-tetrahydro-3λ*6*-thia-2,4,5-triaza-phenanthren-9-yl]-ethanol], the midpoint of inhibition, the IC50, lay at 2370 nM.

For the molecule `CN1Cc2ccc3cccnc3c2NS1(=O)=O` [Example 405, 2-Methyl-1,4-dihydro-2H-3-thia-2,4,5-triaza-phenanthrene 3,3-dioxide], the IC50 was 6500 nM.

With `CCC1c2ccc3cccnc3c2NS(=O)(=O)N1C` (centres unmarked) [Example 412, 1-Ethyl-2-methyl-1,4-dihydro-2H-3-thia-2,4,5-triaza-phenanthrene 3,3-dioxide], the IC50 was 2220 nM.

Molecule `CC1c2ccc3cccnc3c2NS(=O)(=O)N1C` (centres unmarked) [Example 413, 1,2-Dimethyl-1,4-dihydro-2H-3-thia-2,4,5-triaza-phenanthrene 3,3-dioxide] registered a half-inhibitory concentration (IC50) of 4690 nM. Against the preceding molecule, the IC50 is about 2.1-fold higher.

For `CN1C(c2ccc(F)c(C(=O)O)c2)c2ccc3cccnc3c2NS1(=O)=O` (centres unmarked) [Example 424, 2-Fluoro-5-(2-methyl-3,3-dioxo-1,2,3,4-tetrahydro-3λ*6*-thia-2,4,5-triaza-phenanthren-1-yl)-benzoic acid], the IC50 came to 5430 nM.

With `CN(C)CCNCc1cc(C2c3ccc4cccnc4c3NS(=O)(=O)N2C)ccc1F` (centres unmarked) [Example 425, N′-[2-Fluoro-5-(2-methyl-3,3-dioxo-1,2,3,4-tetrahydro-3λ*6*-thia-2,4,5-triaza-phenanthren-1-yl)-benzyl]-N,N-dimethyl-ethane-1,2-diamine], the IC50 is 7410 nM.

The molecule `CN1C(c2ccc(F)c(CNCCN3CCOCC3)c2)c2ccc3cccnc3c2NS1(=O)=O` (centres unmarked) [Example 426, [2-Fluoro-5-(2-methyl-3,3-dioxo-1,2,3,4-tetrahydro-3λ*6*-thia-2,4,5-triaza-phenanthren-1-yl)-benzyl]-(2-morpholin-4-yl-ethyl)-amine] came in with an IC50 of 8560 nM.

As for `CN1C(c2ccc(F)c(CN3CCNCC3)c2)c2ccc3cccnc3c2NS1(=O)=O` (centres unmarked) [Example 427, 1-(4-Fluoro-3-piperazin-1-ylmethyl-phenyl)-2-methyl-1,4-dihydro-2H-3-thia-2,4,5-triaza-phenanthrene 3,3-dioxide], the half-maximal inhibitory concentration (IC50) was determined as 4490 nM. This IC50 lies about 1.9-fold lower than the previous one.

In turn, `CN1C(c2ccc(F)c(C(=O)N3CCOCC3)c2)c2ccc3cccnc3c2NS1(=O)=O` (centres unmarked) [Example 428, [2-Fluoro-5-(2-methyl-3,3-dioxo-1,2,3,4-tetrahydro-3λ*6*-thia-2,4,5-triaza-phenanthren-1-yl)-phenyl]-morpholin-4-yl-methanone] showed an IC50 of 2620 nM.

As to `CN(C)CCNC(=O)c1cc(C2c3ccc4cccnc4c3NS(=O)(=O)N2C)ccc1F` (centres unmarked) [Example 429, N-(2-Dimethylamino-ethyl)-2-fluoro-5-(2-methyl-3,3-dioxo-1,2,3,4-tetrahydro-3λ*6*-thia-2,4,5-triaza-phenanthren-1-yl)-benzamide], half-maximal inhibition (IC50) required 7460 nM.

Molecule `O=S1(=O)Nc2c(ccc3c(-n4cccn4)ccnc23)-c2ccccc21` [Example 494, 1-Pyrazol-1-yl-5H-6-thia-4,5-diaza-chrysene 6,6-dioxide] registered an IC50 of 3530 nM.

`CN(C)c1ccc2c(c1)-c1ccc3cccnc3c1NS2(=O)=O` [Example 502, (6,6-Dioxo-5,6-dihydro-6λ*6*-thia-4,5-diaza-chrysen-9-yl)-dimethyl-amine] had an IC50 of 910 nM.
